Results on one compound are retold here after patent publication US7855292B2, “Sulfonamide compounds” (Janssen Pharmaceutica NV, priority 2004, dated 2010).

The test addresses T1, CCK2 receptor (Homo sapiens, UniProt P32239).
T1 construct: analyzed for ZFP expression as well as CCK2R induction upon addition of doxycycline to the culture medium; endogenous in cells
T1 sequence (P32239 1-447): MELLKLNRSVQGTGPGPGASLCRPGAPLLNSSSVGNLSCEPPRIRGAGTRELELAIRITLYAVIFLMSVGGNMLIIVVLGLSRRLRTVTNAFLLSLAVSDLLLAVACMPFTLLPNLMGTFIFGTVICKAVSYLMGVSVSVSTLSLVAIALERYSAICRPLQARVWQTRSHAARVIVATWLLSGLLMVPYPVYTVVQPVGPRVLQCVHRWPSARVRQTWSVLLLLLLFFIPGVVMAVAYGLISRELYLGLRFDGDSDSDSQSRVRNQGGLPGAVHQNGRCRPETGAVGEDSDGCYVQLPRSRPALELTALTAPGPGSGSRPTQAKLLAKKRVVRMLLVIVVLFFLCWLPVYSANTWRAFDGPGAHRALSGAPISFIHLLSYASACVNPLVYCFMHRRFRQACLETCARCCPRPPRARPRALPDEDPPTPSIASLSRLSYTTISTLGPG
Put plainly: CCK2 binding assay ([125I]-BH-CCK-8S displacement, HEKZFP membranes). Particulars: membranes of doxycycline-induced HEKZFP cells; 20 pM [125I]-BH-CCK-8S; 60 min at 21±3° C.; read-out: CCK2 pKi (converted).

The structures appear in SMILES notation.

In the case of `O=C(N[C@@H](Cc1ccc(Cl)c(Cl)c1)C(=O)O)c1ccc(I)cc1NS(=O)(=O)c1cccc2nsnc12` [Example 2, (S)-2-[2-(Benzo[1,2,5]thiadiazole-4-sulfonylamino)-4-iodo-benzoylamino]-3-(3,4-dichloro-phenyl)-propionic acid], the Ki is 0.0316 µM.
